Experimental data reported in paper PMC3537848 (Cancer research, 2012).
Residue numbers refer to the chain shown, from its start.

Key:
[1] = target: T1, Retinoid X receptor-α (RXRα) (Homo sapiens, UniProt P19793); test: radioligand competition with [3H]-9-cis-RA; format: binding
T1 sequence (P19793 223-462 limits assumed): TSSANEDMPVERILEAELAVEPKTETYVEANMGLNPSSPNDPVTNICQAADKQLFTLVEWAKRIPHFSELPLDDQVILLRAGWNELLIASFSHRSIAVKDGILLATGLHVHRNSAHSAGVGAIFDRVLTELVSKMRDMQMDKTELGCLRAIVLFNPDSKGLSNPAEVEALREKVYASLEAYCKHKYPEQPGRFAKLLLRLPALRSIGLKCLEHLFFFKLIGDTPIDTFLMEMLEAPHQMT

[2] = target: T2, Retinoid X receptor-α (RXRα) (Homo sapiens, UniProt P19793, R316E); test: Gal4 luciferase reporter in CV-1 cells, antagonism of CD3254; format: cell-based
T2 sequence (P19793 198-462 R316E): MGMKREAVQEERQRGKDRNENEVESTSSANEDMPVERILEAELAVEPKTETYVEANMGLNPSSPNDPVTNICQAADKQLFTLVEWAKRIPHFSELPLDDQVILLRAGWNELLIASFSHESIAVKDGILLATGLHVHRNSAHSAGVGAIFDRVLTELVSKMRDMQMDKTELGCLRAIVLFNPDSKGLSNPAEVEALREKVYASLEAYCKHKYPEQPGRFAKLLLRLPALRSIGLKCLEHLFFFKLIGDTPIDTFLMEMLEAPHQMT

[3] = target: T2, Retinoid X receptor-α (RXRα); test: Gal4 luciferase reporter in CV-1 cells; format: cell-based
[4] = target: T3, Retinoid X receptor-α (RXRα) (Homo sapiens, UniProt P19793); test: Gal4-RXRα-LBD luciferase reporter in CV-1 cells; format: cell-based
T3 sequence (P19793 198-462): T2 sequence (P19793 198-462 R316E) with E119R

CC(C)=CCC/C(C)=C/Cc1c(O)c(O)cc2c(=O)c3c(O)c(CC=C(C)C)c(O)cc3oc12 [CF31, 1,3,6,7-tetrahydroxy-2-(3-methyl-2-butenyl)-5-(3,7-dimethyl-2,6-octadienyl)xanthone]
IC50 [1]: 9.6 µM | Gal4 luciferase reporter in CV-1 cells, antagonism of CD3254 [2]: CD3254-induced reporter activity was potently inhibited by CF31 in a dose dependent manner (Fig. 2C)

Cc1cc2c(cc1-c1cc(/C=C/C(=O)O)ccc1O)C(C)(C)CCC2(C)C [CD3254]
Gal4 luciferase reporter in CV-1 cells (agonist) [3]: CD3254 could still activate the RXRα/R316E mutant | Gal4-RXRα-LBD luciferase reporter in CV-1 cells (agonist) [4]: CD3254 strongly induced Gal4-RXRα/LBD activity, which was comparable to that induced by 9-cis-RA
